Assay results as given in publication PMC6526530 (Biological & pharmaceutical bulletin, 2009).

Tests used:
[1] = biological target: T1, P-glycoprotein (ABCB1/MDR1) (Homo sapiens, UniProt P08183); assay: transepithelial transport in L-MDR1 vs LLC-PK1 monolayers; type: cell-based
[2] = biological target: T1, P-glycoprotein (ABCB1/MDR1); assay: inhibition of transepithelial DRV transport in L-MDR1 monolayers; type: cell-based

T1 sequence (P08183 whole entry): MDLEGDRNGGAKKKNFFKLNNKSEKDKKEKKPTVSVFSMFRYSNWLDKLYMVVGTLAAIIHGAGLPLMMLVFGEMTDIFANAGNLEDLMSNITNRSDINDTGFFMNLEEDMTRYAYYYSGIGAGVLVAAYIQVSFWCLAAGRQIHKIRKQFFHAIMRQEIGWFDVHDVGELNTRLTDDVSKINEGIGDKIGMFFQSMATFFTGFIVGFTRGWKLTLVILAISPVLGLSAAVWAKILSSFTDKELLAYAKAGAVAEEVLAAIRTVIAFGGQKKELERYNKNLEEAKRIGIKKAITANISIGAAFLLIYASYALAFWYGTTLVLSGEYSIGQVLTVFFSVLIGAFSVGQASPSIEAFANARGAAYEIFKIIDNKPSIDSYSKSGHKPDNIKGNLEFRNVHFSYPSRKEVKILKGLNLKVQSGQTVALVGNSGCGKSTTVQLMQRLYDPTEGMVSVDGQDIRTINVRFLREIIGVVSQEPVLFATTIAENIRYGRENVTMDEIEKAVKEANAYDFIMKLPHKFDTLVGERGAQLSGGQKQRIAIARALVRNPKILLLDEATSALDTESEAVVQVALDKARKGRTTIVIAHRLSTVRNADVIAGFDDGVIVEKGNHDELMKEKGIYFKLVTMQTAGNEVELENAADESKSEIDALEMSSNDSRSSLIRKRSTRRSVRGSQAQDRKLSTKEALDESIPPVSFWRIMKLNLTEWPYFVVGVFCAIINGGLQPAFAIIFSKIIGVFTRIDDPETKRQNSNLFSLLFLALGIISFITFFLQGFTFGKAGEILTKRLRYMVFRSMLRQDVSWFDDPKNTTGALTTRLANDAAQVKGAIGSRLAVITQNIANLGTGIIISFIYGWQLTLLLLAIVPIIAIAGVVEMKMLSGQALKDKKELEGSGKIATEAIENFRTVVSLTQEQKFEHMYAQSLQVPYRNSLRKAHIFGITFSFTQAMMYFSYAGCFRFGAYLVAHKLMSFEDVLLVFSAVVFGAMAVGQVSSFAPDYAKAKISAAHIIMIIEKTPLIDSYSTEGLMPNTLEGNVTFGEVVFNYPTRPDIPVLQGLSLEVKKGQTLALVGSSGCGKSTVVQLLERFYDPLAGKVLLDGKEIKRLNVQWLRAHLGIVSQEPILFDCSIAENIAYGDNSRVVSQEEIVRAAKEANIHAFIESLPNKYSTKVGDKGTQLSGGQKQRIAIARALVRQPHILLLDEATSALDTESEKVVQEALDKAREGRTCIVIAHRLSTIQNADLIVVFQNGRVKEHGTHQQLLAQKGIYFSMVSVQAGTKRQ

CC(C)CN(C[C@@H](O)[C@H](Cc1ccccc1)NC(=O)O[C@H]1CO[C@H]2OCC[C@H]21)S(=O)(=O)c1ccc(N)cc1 [DRV, Darunavir]
IC50 [1]: 121 µM

Cc1c(O)cccc1C(=O)N[C@@H](CSc1ccccc1)[C@H](O)CN1C[C@H]2CCCC[C@H]2C[C@H]1C(=O)NC(C)(C)C [NFV, Nelfinavir]
inhibition of transepithelial DRV transport in L-MDR1 monolayers [2]: showed NFV to have a potent inhibitory effect on P-glycoprotein-mediated transport of DRV when compared to RTV and SQV
